From patent US8592375B2, “Multifunctional context-activated protides and methods of use” (Los Angeles Biomedical Research Institute at Harbor-UCLA …, priority 2002, dated 2013) come the findings set out here.

Like-named read-outs stand apart in the source and are kept apart here. Where a SMILES comes first, the peptide text is derived from it.

Experiment [1] concerns the target T1, staphylococcal V8 protease (Staphylococcus aureus, UniProt P0C1U8).
T1 construct: purchased Sigma Chemical Co
In words: Cleavage (activation) of PT-1 by purified V8 protease in vitro, followed by analytical RP-HPLC and AU-PAGE. The conditions noted are these: in a time frame of minutes, fragments consistent with RP-1 and IL-8-like domains. Type of experiment: biochemical, S. aureus.

Experiment [2] deals with S. aureus strains ISP479C and ISP479R. The class given is cell-based. The source says:
(§1) In order to assess the antimicrobial properties of PT-1, a panel of well-characterized test pathogens was used that included S. aureus strains ISP479C and ISP479R as described by Dhawan et al., Infect. Immun. 66:[…] (1998); Candida albicans strains 36082 (ATCC type strain 36082)and 36082R as described by Yeaman et al., Infect. Immun. 64:1379-1384 (1996); Salmonella typhimurium strains m5996s and 14028s as described by Fields et al., Science 243:1059-62 (1989); Yeaman et al., 38th Interscience Conference on Antimicrobial Agents and Chemotherapy (ICAAC), San Diego, Calif., Abstract No. F-170 (1999); and Bacillus subtilis strain ATCC 6633 as described by Yeaman et al., Infect. Immun. 60:1202-1209 (1992), each of which is incorporated herein by reference in its entirety.
A microtiter well assay was also performed as a complement to the radial diffusion assay described above. In this assay, PT-1, RP-1, or V8 protease (Sigma Chemical Co.) were serially diluted from 100 ug (range, 100-0.20 ug/ml) and individually assessed for antimicrobial activity against S. aureus strains ISP479C and ISP479R as described above. In addition, this assay allowed for the evaluation of antimicrobial activities of combinations of PT-1 and V8, in conditions of constant or dynamic dilution of one or both agents. This latter approach enabled the determination of static as well as dynamic fractional inhibitory concentrations (FICs) of PT-1 in the presence and absence of purified V8 protease.

For experiment [3] the test system is unchanged. In words: Modified radial diffusion assay, S. aureus strains. The conditions noted are these: 5 ug per well, both S. aureus strains, regardless of intrinsic susceptibility or resistance. The class given is cell-based.
Description: as §1
(§2) In order to compare the antimicrobial activities of PT-1 with those of RP-1 against a panel of test pathogens, radial diffusion assay and a microtiter well assay were utilized.
(§3) Briefly, a modified radial diffusion assay was employed to compare the antimicrobial activities of PT-1 with RP-1 in a solid-phase matrix format. […] The assay plates were then incubated for 18 h at 37° C., after which zones of inhibition (in mm of diameter) were measured and recorded.

Experiment [4] has as its system all organisms except S. aureus (Candida albicans, Salmonella typhimurium, Bacillus subtilis). Description: Modified radial diffusion assay, test pathogens other than S. aureus. Type of experiment: cell-based. The settings on record: 5 ug per well, organisms that do not elaborate V8 protease.
Description: as §1, §2, §3

T1 sequence (P0C1U8 69-336): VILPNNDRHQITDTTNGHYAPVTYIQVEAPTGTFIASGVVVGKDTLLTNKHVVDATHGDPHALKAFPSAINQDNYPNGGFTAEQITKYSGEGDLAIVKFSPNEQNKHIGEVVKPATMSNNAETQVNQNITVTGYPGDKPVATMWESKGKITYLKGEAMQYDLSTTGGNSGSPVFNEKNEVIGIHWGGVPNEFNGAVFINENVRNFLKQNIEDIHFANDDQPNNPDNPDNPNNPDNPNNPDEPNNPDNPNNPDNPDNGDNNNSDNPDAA

For the compound `CC[C@H](C)[C@H](NC(=O)[C@H](CS)NC(=O)[C@H](CCC(N)=O)NC(=O)[C@H](CS)NC(=O)[C@H](CCCNC(=N)N)NC(=O)[C@H](CC(C)C)NC(=O)[C@H](CCC(=O)O)NC(=O)[C@H](CCCCN)NC(=O)[C@H](C)N)C(=O)N[C@@H](CCCCN)C(=O)N[C@H](C(=O)N[C@@H](Cc1ccc(O)cc1)C(=O)N[C@@H](CO)C(=O)N[C@@H](CCCCN)C(=O)N[C@@H](CCC(=O)O)C(=O)N[C@@H](C)C(=O)N[C@@H](CC(C)C)C(=O)N[C@@H](Cc1ccc(O)cc1)C(=O)N[C@@H](CCCCN)C(=O)N[C@@H](CCCCN)C(=O)N[C@@H](Cc1ccccc1)C(=O)N[C@@H](CCCCN)C(=O)N[C@@H](CCCCN)C(=O)N[C@@H](CCCCN)C(=O)N[C@@H](CC(C)C)C(=O)N[C@@H](CC(C)C)C(=O)N[C@@H](CCCCN)C(=O)N[C@@H](CO)C(=O)N[C@@H](CC(C)C)C(=O)N[C@@H](CCCCN)C(=O)N[C@@H](CCCNC(=N)N)C(=O)N[C@@H](CC(C)C)C(=O)NCC(=O)O)[C@@H](C)O` [PT-1] (H-AKELRCQCIKTYSKEALYKKFKKKLLKSLKRLG-OH; N-terminus and C-terminus assumed), the “cleavage (activation) on exposure to purified V8 protease” value in experiment [1] is recorded as “cleaved (activated) into two separate fragments”. In experiment [2] (PT-1 with V8 protease, considered synergistic), the “FIC (fractional inhibitory concentration)” value is listed as below 0.5. Also, the MIC in experiment [2] (co-incubated with V8 protease) was 3.1 µg/mL; in experiment [2] (without V8 protease) it was 12.5 µg/mL. Also, the “increased activity in the presence of purified V8 protease compared to its absence” value in experiment [2] (with vs without purified V8 protease) was at least 2 fold. The “antimicrobial activity (zones of inhibition)” value in experiment [3] is “activation and enhanced antimicrobial activity”. Further, in experiment [4], the “antimicrobial activity compared with RP-1 (zones of inhibition)” value is reported as “substantially less antimicrobial activity than RP-1”.

By MIC is commonly meant the lowest concentration that inhibits growth of the organism.
